Molecular target: T1, Tyrosine-protein phosphatase non-receptor type 11 (Homo sapiens, UniProt Q06124)
T1 sequence (Q06124 whole entry): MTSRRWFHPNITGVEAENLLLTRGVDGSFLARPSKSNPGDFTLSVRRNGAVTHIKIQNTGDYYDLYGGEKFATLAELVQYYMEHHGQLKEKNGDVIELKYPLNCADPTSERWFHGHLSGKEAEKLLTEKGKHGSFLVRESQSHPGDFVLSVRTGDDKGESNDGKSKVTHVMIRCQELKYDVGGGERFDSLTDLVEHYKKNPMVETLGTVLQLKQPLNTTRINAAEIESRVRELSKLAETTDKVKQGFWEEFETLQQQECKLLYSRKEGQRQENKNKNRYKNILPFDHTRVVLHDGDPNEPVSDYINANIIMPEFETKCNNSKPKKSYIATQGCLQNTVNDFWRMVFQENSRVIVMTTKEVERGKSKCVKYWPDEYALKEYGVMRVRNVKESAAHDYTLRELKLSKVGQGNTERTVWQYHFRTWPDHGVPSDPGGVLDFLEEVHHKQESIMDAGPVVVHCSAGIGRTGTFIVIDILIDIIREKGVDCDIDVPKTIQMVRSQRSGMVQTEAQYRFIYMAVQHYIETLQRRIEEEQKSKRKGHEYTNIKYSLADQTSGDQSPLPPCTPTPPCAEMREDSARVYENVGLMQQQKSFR
Assay: PTPN11 enzyme inhibitors – biochemical, selectivity assay for STEP inhibitor project, dose response (AID 602367)

Row | SMILES | IC50
1 | S=C1N=C(C23CC4CC(CC(C4)C2)C3)CC(c2ccc3c(c2)OCO3)N1 (stereo not given) | 15 µM
2 | CCOc1cc(CN=Nc2nc(O)c(CC(=O)O)s2)ccc1OCc1ccc(Cl)cc1Cl [2-[2-[(N''E)-N''-[4-(2,4-dichlorobenzyl)oxy-3-ethoxy-benzylidene]hydrazino]-4-keto-2-thiazolin-5-yl]acetic acid] | 2.2 µM
3 | S=C1N=C2C(=C3SCCS3)CCCC2C(c2ccccc2)N1 (stereo not given) [MLS000516376] | 5.27 µM
4 | CCN(CC)P(=O)(NC(=O)C(Cl)(Cl)Cl)N(CC)CC [MLS000564159] | 3.91 µM
5 | CSc1ccc(CN=Nc2ccc(S(=O)(=O)Nc3ccccc3C(=O)O)cc2[N+](=O)[O-])cc1 [MLS002245633] | 1.11 µM
6 | COc1ccc(CN=Nc2nc(O)c(CC(=O)O)s2)cc1OCc1ccc(Cl)cc1Cl [[2-({3-[(2,4-dichlorobenzyl)oxy]-4-methoxybenzylidene}hydrazono)-4-oxo-1,3-thiazolidin-5-yl]acetic acid] | 4.42 µM

Next, values leading:

Row | IC50 | SMILES
7 | < 0.16 µM | C=c1c(O)c(O)c(=C2C(=O)C(=O)C(C)C(=O)C2=O)c(O)c1O (stereo not given) [(3E)-5-hydroxy-6-methyl-3-(2,3,5-trihydroxy-4-methyl-6-oxo-1-cyclohexa-2,4-dienylidene)cyclohex-5-ene-1,2,4-trione]
8 | 58.9 µM | O=C1C(=O)N(CCCO)C(c2ccc(Br)cc2)C1C(=O)c1ccc(Br)cc1 (stereo not given) [(4E)-5-(4-bromophenyl)-4-[(4-bromophenyl)-oxidanyl-methylidene]-1-(3-oxidanylpropyl)pyrrolidine-2,3-dione]
9 | 2.39 µM | O=C(N/N=C/C1C=CC=CC1=O)c1cccc([N+](=O)[O-])c1 (stereo not given) [MLS002667988]
10 | 0.469 µM | COc1ccc(OC)c(-n2c(O)c3o[nH]c(-c4ccccc4Cl)c-3c2=O)c1 [SMR000046218]
